From US20040009601A1, “Methods for the regeneration and transformation of cotton” (The Regents of the University of California, priority 2002, published 2004)

Tested on: Maxxa hypocotyl explants
Assay: Callus induction from Maxxa hypocotyl explants, orthogonal array L9 factorial experiment
Assay type: cell-based, Gossypium hirsutum L. cv. Maxxa
Conditions: for Σ RG1: regeneration potential, mean Y of factor 1: factor 1 = 0 mg l-1 of the hormone; for Σ RG2: regeneration potential, mean Y of factor 2: factor 2 = 2,4-D 0.05, NAA 1.0, kinetin 0.5 mg l-1; for Σ RG3: regeneration potential, mean Y of factor 3: factor 3 = 2,4-D 0.1, NAA 2.0, kinetin 1.0 mg l-1; for Σ RG: mean of Σ RG1, Σ RG2 and Σ RG3: per hormone over the three factor levels
Procedure: Hypocotyl explants ˜5 mm in length were excised from 7-10 day-old seedlings under sterile conditions. Explants were placed in a 25×100-mm petri dish (one seedling per plate) containing ˜30 ml of callus induction medium, sealed with parafilm and cultured at 28±2° C. under a combination of cool white and full spectrum fluorescent lights with a 16-hour light/8-hour dark cycle for 3 to 4 weeks to induce callus formation.
Initial experiments were conducted using MS2NK (2 mg 1^−1 NAA substituted for 2,4-D in MS2DK, Trolinder and Goodin, 1987), a medium used for callus induction in the elite regenerable Coker 312 line. To optimize a callus induction medium for Maxxa, a factorial experiment using an Orthogonal Array L9 (3^4) experimental design ((Taguchi, Introduction to Quality Engineering, Tokyo, Japan (1986)) was performed to determine the best hormonal regime for induction of callus capable of undergoing somatic embryogenesis. The optimal combination of NAA, 2,4-D and kinetin was evaluated at varying concentrations (Table 1) in basal MS medium (Murashige and Skoog, Physiol. Plant. 15:473-497 (1962)) in four independent experiments. In each experiment, 18 hypocotyl explants were excised from 24-48 individual seedlings to provide two explants per seedling per treatment. Each replicated treatment was evaluated for the ability to proliferate a friable callus that was yellowish-green to creamy in color, granular in texture, and readily dispersed in liquid medium. Calli characteristics were scored at 3 weeks and 6 weeks for color, texture, dispersiveness in liquid media, and cell/callus size as the parameters for evaluation. Based on these criteria, the optimized Maxxa callus induction medium (MCIM) selected for cotton regeneration is comprised of MS salts (GibcoBRL Cat no. 11117-074) supplemented with 100 mg 1^−1 myo-inositol, B5 vitamins (10 mg 1^−1 thiamine-HCl; 1 mg 1^−1 nicotinic acid; 1 mg 1^−1 pyridoxine), 0.75 g 1^−1 MgCl2, 30 g 1^−1 glucose, 2.0 mg 1^−1 NAA and 0.05 mg 1^−1 2,4-D. The medium was adjusted to pH 5.8 before adding agar (2.5 g 1^−1 Phytagel).
A factorial experiment using an orthogonal array L9 (3^4) design was conducted to determine optimal conditions for callus induction and somatic embryogenesis by Maxxa hypocotyl explants. Different hormonal combinations of auxin (NAA and/or 2,4-D) and cytokinin (kinetin) were tested at varying concentrations (Table 1) in basal MS medium (Murashige and Skoog, supra). Each of the 9 replicated treatments was scored for callus initiation efficiency (Y) based on two components—(I) the mean of the number of explants producing good quality callus and (II) embryogenic potential, that is, the developmental transition of undifferentiated callus to somatic embryogenesis—expressed as a percent (Table 1). The production and proliferation of callus considered of “good quality” was based on four criteria: color, texture, dispersiveness in liquid media, and size/shape of undifferentiated cells. Within each category, each callus was scored with a rating of 1 to 4 based on the following parameters: Color—dark green (4) to parrot-green/creamy (1), Texture—hard and compact (4) to soft and friable (1), Dispersiveness—intact (4) to readily dispersed cell clumps (1) in liquid medium, Size/Shape—small cells/compact callus (<1 mm) (4) to nodular, “grainy” callus (>2 mm) (1). Good quality callus received ratings of “1” in each category. The embryogenic potential (II) of Y represents the ability of undifferentiated parenchymal cells to organize into meristematic centers and successfully undergo somatic embryogenesis. The factors considered in determining II/Y included the formation of organized cell clusters in embryogenic cultures, the types of embryos produced (globular, heart-shaped, torpedo), and the color of the somatic embryo (white/transparent vs. yellow/opaque). […]

Compound	Importance of the hormone for callus induction from Maxxa hypocotyls, judged from Σ RG	Σ RG1: regeneration potential, mean Y of factor 1 [%]	Σ RG2: regeneration potential, mean Y of factor 2 [%]	Σ RG3: regeneration potential, mean Y of factor 3 [%]	Σ RG: mean of Σ RG1, Σ RG2 and Σ RG3 [%]
O=C(O)COc1ccc(Cl)cc1Cl [2,4-D, 2,4-dichlorophenoxyacetic acid]	essential for callus induction	5.77	61.87	77.07	71.30
c1coc(CNc2ncnc3[nH]cnc23)c1 [Kinetin, kinetin]	not critical	63.27	32.78	46.65	32.49
